Legend:
[1] = Serum rhRLX, quantitative sandwich immunoassay (Example 1); assay type: in vivo, rat; details: osmotic minipump 4 μg/hour for 5 days, 17 rats, mean±SEM
Procedure: One milliliter of blood was obtained from the rats administered rhRLX for 5 days at the end of the renal function measurements. The levels of rhRLX in serum were then measured in a quantitative sandwich immunoassay. Unemori et al. (1996) J. Clin. Invest. 98:2739-2745. Briefly, wells of a 96-well microtiter plate (Maxisorp Immunomodules, Nunc, Inc., Naperville, Ill.) were coated overnight with affinity purified anti-rhRLX rabbit polyclonal antibody. Sera were diluted in phosphate buffered saline containing Tween 20, Thimerosal, bovine serum albumin (Sigma Chemical Co., St. Louis, Mo.) and normal goat IgG (Organon Teknika-Cappel, Durham, N.C.), and 100 μl were added to wells in duplicate. […] After an appropriate incubation period at room temperature, the wells were washed again, and 100 μl of a tetramethylbenzidine solution was added to each well. After color development, the reaction was stopped, absorbances at 450/630 nm were measured, and relaxin concentrations in the sera were determined by entering data into a four-parameter logistic curve-fitting program.

[2] = tested on: rat aortic endothelial cells; experiment: 3H-thymidine uptake, rat endothelial cells; assay type: cell-based; details: serum-free medium
Procedure: Endothelial cells were derived from explant cultures of human neonatal foreskin and rat aorta. Primary human endothelial cells from umbilical vein, aorta, and lung were purchased from Clonetics-BioWhittaker Corporation (San Diego, Calif.) and cultured according to vendor instructions. ^3H-thymidine uptake was performed, as previously described, in serum-free medium. Unemori et al. (1994) Exp. Cell Res. 21:166-171.
Relaxin was then assayed for the ability to induce proliferation of endothelial cells directly. Relaxin's potential mitogenic effect was tested on human primary umbilical vein, aortic, foreskin, and pulmonary endothelial cells, as well as rat aortic endothelial cells. […] Alterations in other aspects of endothelial cell phenotype that are believed to correlate with angiogenesis were also tested. Relaxin had no effect on collagen expression, judged by SDS-PAGE of ^3H-proline-labeled cellular proteins; or metalloproteinase or tissue inhibitor of metalloproteinase-1 secretion, assessed by gelatin zymography. […] Therefore, relaxin had no apparent effect directly on endothelial cells.

[3] = tested on: THP-1 cells; experiment: THP-1 cells: secreted VEGF protein by ELISA; assay type: cell-based, human
Procedure: THP-1 cells were obtained from the American Type Culture Collection (ATCC# TIB202), and grown in Iscove's medium supplemented with 10% fetal bovine serum and 2 mM L-glutamine. For experiments, THP-1 cells were cultured at 5×10^5 cells/ml in 24-well plates, treated and allowed to incubate for various times at 37° C. Conditioned media and cells were then collected, and cells removed by centrifugation at 500 g for 5 min. Media were stored at −80° C. until assayed.
VEGF protein was quantified in an ELISA kit purchased from R & D Systems (Minneapolis, Minn.). The lower limit of sensitivity of the assay was 10 pg/ml.
Because macrophages are the inflammatory cells predominantly responsible for the angiogenic response that occurs during healing, a monocyte/macrophage cell line shown previously to bind relaxin with high affinity (THP-1) (Parsell et al. (1996) J. Biol. Chem. 271:27936-27941) was tested for relaxin inducibility of VEGF and bFGF. THP-1 cells were cultured in vitro, treated with relaxin (100 ng/ml) for 3 hours, and assayed for VEGF and bFGF mRNA induction. […] In order to determine whether the increase in VEGF mRNA observed following short-term relaxin treatment was reflected by an elevation in secreted VEGF protein, THP-1 cells were treated with relaxin (0.01-100 ng/ml) for 24 h, the conditioned media collected, and VEGF content in the media quantified by ELISA. […]

[4] = tested on: human VEGF165, VEGF121, bFGF and HGF transcripts in human cardiac cells; experiment: Human cardiac cells: quantitative RT-PCR after relaxin treatment in vitro; assay type: cell-based
Excerpt: Oligonucleotides were designed to rat or human bFGF, human VEGF165 amino acid or 121 amino acid isoforms, and their respective rat homologues (VEGF164 and VEGF120), and human HGF (for use with the PE Applied Biosystems “GeneAmp PCR System 9600”). Rat and human GAPDH primers and probes were purchased from BioSource International Inc. and PE Applied Biosystems, respectively. Tissue samples and monolayer cells were suspended in RNA STAT-60 (Tel-Test, Inc., Friendswood, Tex.) and processed following vendor instructions. Reverse transcription-polymerase chain reaction (RT-PCR) was performed using either rat or human total RNA as template. 150 ng of total RNA was used for the analysis of VEGF, bFGF and HGF mRNA expression; 10 ng of total RNA was used for GAPDH mRNA expression. Reverse transcription-polymerase chain reaction (RT-PCR) reagents were purchased from PE Biosystems (Foster City, Calif.).
To determine if the effects of relaxin observed in the rat were also seen in human cells, total RNA from cardiac cells was extracted following treatment of cells with 1, 10, and 100 ng/ml relaxin for 24 hours. Human cardiac cells were cultured for 24 hours either without or with relaxin (1-100 ng/ml). Untreated cells were incubated for the same 24 hour period under hypoxic (2% O2) conditions. Using 150 ng of total RNA for human VEGF and bFGF transcripts and 10 ng of total RNA for GAPDH transcripts, primer/probe sets were used to generate RT-PCR products for human VEGF 165aa and 121aa isoforns and human bFGF. Data were analyzed using Sequence Detector v1.6.3 software (Applied Biosystems/PE). VEGF and bFGF expression levels are graphed relative to GAPDH transcript levels. Data are shown as means±SEM, where n=3 per treatment group; *p<0.05; Student-Newman-Keuls test. […] Absolute baseline levels of bFGF mRNA transcripts expressed by these cells were approximately 2-fold greater than those of either the VEGF121 or the VEGF165 isoforms. Total RNA from cells incubated under hypoxic conditions was analyzed as a positive control for the stimulation of VEGF isoforms. As predicted, mRNA transcript levels for both VEGF isoforms increased 220% over untreated control levels following 24 hr exposure to hypoxia, as shown in FIG. 6. bFGF expression was not induced by hypoxia. […] Relaxin had no effect on cellular proliferation, as assessed by ^3H-thymidine incorporation, on cellular morphology, or on desmin or vimentin staining patterns.

rhRLX: recombinant human relaxin, identical in amino acid sequence to the product of the human H2 gene; A chain of 24, B chain of 29 amino acids
serum concentration of rhRLX [1]: 28.1 ± 4.8 ng/mL | 3H-thymidine uptake [2]: did not alter | VEGF protein secretion ([3]; 0.01-100 ng/ml for 24 h, dose-dependent): approximately 150% | threshold relaxin concentration required for stimulation of VEGF protein secretion ([3]; 24 h): 0.2 to 1.0 ng/mL | Basic FGF expression, maximum elevation over baseline ([4]; 100 ng/ml, 24 hours): 2.2 fold | VEGF121 mRNA, maximum increase in expression over untreated controls ([4]; 100 ng/ml, 24 hours): 3 fold | VEGF165 mRNA, maximum increase in expression over untreated controls ([4]; 100 ng/ml, 24 hours): 2.3 fold | Transcripts for human HGF ([4]; untreated vs relaxin treated cells): no difference in expression

— patent US6723702B2, “Use of relaxin treat diseases related to vasoconstriction” (RAS Medical, Inc., priority 2000, dated 2004)
